{
  "source": "patent US12186320B2",
  "about": "“Therapeutic agent containing pyrazolo[3,4-d]pyrimidine compound as active ingredient” (TAIHO PHARMACEUTICAL CO., LTD., priority 2018, dated 2025)",
  "key": {"[1]": {"tested_on": "Breast cancer (primary), HER2 +", "settings": "single patient; neighbouring lines without a result appear to be partners of the same regimen; cited from earlier work"}, "[2]": {"tested_on": "Champions Tumor Graft models CTG-1171", "settings": "cited from earlier work"}, "[3]": {"tested_on": "Champions Tumor Graft models CTG-1171", "assay": "Anti-tumor effect using cancer patient-derived cells (CTG-1171 PDX, Test Example 2)", "format": "in vivo, nude mice (Athymic Nude-Foxn1nu)", "method": "Champions Tumor Graft models CTG-1171 (Champions Oncology, Inc.) having the profiles shown in Tables 5-8 were transplanted into Stock mice (Athymic Nude-Foxn1^nu, Envigo). Once the tumor volume of the transplanted tumor reached 1,000-1,500 mm^3, the tumor was taken out and a fragment thereof of about 65 mm^3 was subcutaneously transplanted into the left side of 7-week-old nude mice (Athymic Nude-Foxn1^nu, Envigo). Tumor diameters were measured twice a week with a digital caliper. TV was calculated according to the following equation. TV (mm^3)=Width (mm)^2×Length (mm)×0.52\nTen individuals whose tumor volumes reached 150-300 mm^3 were assigned to each group (Day 0).\n(§1) Compound 1 was prepared to have a predetermined concentration with a 0.1N HCl solution, and the resultant was orally administered once a day on Days 0-27 consecutively. Tumor diameters were measured twice a week with a digital caliper. The rate of change in the weight of the mouse was calculated in the same manner as Test example 1 above. Mice observed with weight loss by 10% or more as compared to Day 0 were given DietGel (registered trademark).\nThe anti-tumor effect of the drug was evaluated according to tumor growth inhibition (TGI), which was calculated by the following equation. TGI=(100%×[1−(TV of treated group on Day 27−TV of treated group on Day 0)/(TV of control group on Day 27−TV of control group on Day 0)])"}, "[4]": {"tested_on": "Human stomach cancer cell line, NCI-N87", "assay": "Antitumor evaluation in model with tumor recurrence following administration of trastuzumab emtansine (NCI-N87 subcutaneous xenograft)", "format": "in vivo, nude mice (BALB/cAJcl-nu/nu)", "settings": "for TV (mm^3) on Day43 Mean ± SD: Step 2, Day 43, Compound 1 60 mg/kg/day p.o. Days 1-42, trastuzumab emtansine 10 mg/kg/day i.v. Days 1, 22, n=9", "method": "Human stomach cancer cell line, NCI-N87, was obtained from American Type Culture Collection (ATCC). The cell line was cultured in a RPMI-1640 medium (containing 4.5 g/L glucose, 10 mM HEPES and 1 mM sodium pyruvate) (Wako Pure Chemical Corporation) containing 10% fetal bovine serum (FBS) at 37° C. in a 5% CO2 incubator.\nThe NCI-N87 cells were resuspended in PBS to a concentration of 10^8 cells/mL. A 1-mL tuberculin syringe with a 25G needle was used to subcutaneously transplant […] cells/0.1 mL each of the cell suspension into the right chests of 6-week-old nude mice (BALB/cAJcl-nu/nu, CLEA Japan, Inc.).\nThe tumor diameter was measured with a digital caliper by holding the long diameter and the short diameter of the tumor between the measuring surfaces of the digital caliper for each mouse. Measurements took place at a frequency of once in 2-5 days including the day of group sorting and the day of judgement. The tumor volume (TV) was calculated based on these long and short diameters. The relative tumor volume (RTV) and the rate of change in the relative tumor volume (T/C) were calculated from the calculated tumor volume. TV, RTV and T/C were calculated according to the following equations. Tumor volume TV(mm^3)=(Long diameter, mm)×(Short diameter, mm)×(Short diameter, mm)/2 Relative tumor volume RTV=(TV on day of measurement)/(TV on day of dividing into groups) Rate of change in relative tumor volume T/C (%)=(Mean RTV of treated group)/(Mean RTV of control group)×100\nThe tumor diameters and weights were measured with time to calculate TV and BWC.\nEighteen nude mice confirmed with tumor recurrence in Step 1 were selected, and 9 animals were assigned to each group by equal distribution (MiSTAT (ver.2.0)) as follows such that the mean TV of each group was uniform (Day 1, i.e., Day 85 as counted from Step 1). Compound 1 was prepared to 6 mg/mL with a 0.1N HCl solution, and the resultant was orally administered once a day on Days 1-42 consecutively. […] The tumor diameters and weights were measured with time to calculate TV and BWC."}, "[5]": {"assay": "Body weight change / toxicity judgement in CTG-1171 PDX model (Test Example 2)", "format": "in vivo", "settings": "60 mg/kg/day p.o. Days 0-27", "method": "as §1\nIn addition, the presence of toxicity was judged as follows: a dose observed with a weight loss of 20% or more or a mortality rate of 10% or more was judged to have exceeded the MTD (maximum tolerated dose) and thus toxicity was present."}, "[6]": {"settings": "value on first line of a two-line group (apparent combination): Capecitabine 5 with Lapatinib 1 mg/kg/day, once a day for 21 days p.o., Gemcitabine with Nab-paclitaxel, dose not given"}},
  "note": "Like-named read-outs stand apart in the source and are kept apart here.",
  "data": [
    {"molecule": "C=C1C[C@@H]2CC[C@@]34C[C@H]5O[C@H]6[C@@H](O3)[C@H]3O[C@H](CC[C@@H]3O[C@H]6[C@H]5O4)CC(=O)C[C@@H]3[C@@H](OC)[C@@H](C[C@H](O)CN)O[C@H]3C[C@H]3O[C@@H](CC[C@@H]1O2)C[C@@H](C)C3=C", "note": "[Eribulin]", "values": [
      {"measurement": "Result (treatment history after acquiring tumor tissue)", "setting": "[1]", "result": "No response"}
    ]},
    {"molecule": "CO[C@H]1C[C@@H]2CC[C@@H](C)[C@@](O)(O2)C(=O)C(=O)N2CCCC[C@H]2C(=O)O[C@H]([C@H](C)C[C@@H]2CC[C@@H](OC(=O)C(C)(CO)CO)[C@H](OC)C2)CC(=O)[C@H](C)/C=C(\\C)[C@@H](O)[C@@H](OC)C(=O)[C@H](C)C[C@H](C)/C=C/C=C/C=C/1C", "note": "[Temsirolimus]", "values": [
      {"measurement": "TGI (%)", "setting": "[2]; single agents, Nab-paclitaxel 0.5 mg/kg/day once a week for 3 weeks i.v., Temsirolimus 0.5 once a week for 5 weeks i.p., Trastuzumab 15 once a week for 8 weeks i.v., Afatinib dose not given", "result": 59, "unit": "%"}
    ]},
    {"molecule": "C=CC(=O)N1CCC[C@@H](n2nc(C(=O)Nc3ccc(CC(=O)N(C)C)c(C)c3C)c3c(N)ncnc32)C1", "note": "[Compound 1, (R)-1-(1-acryloylpiperidine-3-yl)-4-amino-N-(4-(2-(dimethylamino)-2-oxoethyl)-2,3-dimethylphenyl)-1H-pyrazolo[3,4-d]pyrimidine-3-carboxamide]", "values": [
      {"measurement": "TV versus control-administered group on Day 27", "setting": "[3]; 60 mg/kg/day p.o. Days 0-27", "result": "significantly lower"},
      {"measurement": "TV (mm^3) on Day0 Mean ± SD", "setting": "[3]; Day 0 (group assignment, baseline), n=10", "result": "196 ± 22", "unit": "mm^3"},
      {"measurement": "TV (mm^3) on Day27 Mean ± SD", "setting": "[3]; Day 27, 60 mg/kg/day p.o. Days 0-27, n=10", "result": "162 ± 27", "unit": "mm^3"},
      {"measurement": "TGI (%)", "setting": "[3]; Day 27 versus Day 0, versus control, 60 mg/kg/day p.o. Days 0-27", "result": 112, "unit": "%"},
      {"measurement": "TV versus trastuzumab emtansine-administered group on day of judgement (Day 43)", "setting": "[4]; Aspin-Welch's t-test, Compound 1 60 mg/kg/day p.o.", "result": "significantly lower"},
      {"measurement": "T/C (%)", "setting": "[4]; Day 43, mean TV of Compound 1 group / mean TV of trastuzumab emtansine group × 100, 60 mg/kg/day p.o. Days 1-42", "result": 25.4, "unit": "%"},
      {"measurement": "TV (mm^3) on Day43 Mean ± SD", "setting": "[4]", "result": "107.29 ± 37.76", "unit": "mm^3"},
      {"measurement": "decrease of average rate of change in the weight during the administration period", "setting": "[5]", "result": "< 5", "unit": "%"},
      {"measurement": "judgement of the dose (tolerability)", "setting": "[5]", "result": "tolerable"},
      {"measurement": "BWG(%) on Day27 Mean", "setting": "[5]; Day 27", "result": "−0.60", "unit": "%"}
    ]},
    {"molecule": "CS(=O)(=O)CCNCc1ccc(-c2ccc3ncnc(Nc4ccc(OCc5cccc(F)c5)c(Cl)c4)c3c2)o1", "note": "[Lapatinib]", "values": [
      {"measurement": "Result (treatment history after acquiring tumor tissue)", "setting": "[1]", "result": "No response"}
    ]},
    {"molecule": "Nc1ccn([C@@H]2O[C@H](CO)[C@@H](O)C2(F)F)c(=O)n1", "note": "[Gemcitabine]", "values": [
      {"measurement": "TGI (%)", "setting": "[2]; [6]", "result": 28, "unit": "%"}
    ]},
    {"molecule": "CCCCCOC(=O)Nc1nc(=O)n([C@@H]2O[C@H](C)[C@@H](O)[C@H]2O)cc1F", "note": "[Capecitabine]", "values": [
      {"measurement": "TGI (%)", "setting": "[2]; [6]", "result": 96, "unit": "%"}
    ]},
    {"molecule": "CC(=O)O[C@@]12CO[C@@H]1C[C@H](O)[C@@]1(C)C(=O)[C@H](O)C3=C(C)[C@@H](OC(=O)[C@H](O)[C@@H](NC(=O)OC(C)(C)C)c4ccccc4)C[C@@](O)([C@@H](OC(=O)c4ccccc4)[C@H]21)C3(C)C", "note": "[Docetaxel]", "values": [
      {"measurement": "Result (treatment history before acquiring tumor tissue)", "setting": "[1]", "result": "Responded"}
    ]},
    {"molecule": "Trastuzumab emtansine", "values": [
      {"measurement": "Result (treatment history after acquiring tumor tissue)", "setting": "[1]", "result": "No response"},
      {"measurement": "Result (treatment history before acquiring tumor tissue)", "setting": "[1]", "result": "No response"},
      {"measurement": "tumor course after administration of trastuzumab emtansine (FIG. 1)", "setting": "[4]; Step 1, 10 mg/kg/day i.v. on Days 1, 22, 43, 64, n=36", "result": "tumor shrinkage was confirmed for once by administration of trastuzumab emtansine but tumor recurrence was confirmed on Day 85"},
      {"measurement": "TV (mm^3) on Day43 Mean ± SD", "setting": "[4]", "result": "421.92 ± 143.78", "unit": "mm^3"}
    ]},
    {"molecule": "Bevacizumab", "values": [
      {"measurement": "Result (treatment history before acquiring tumor tissue)", "setting": "[1]", "result": "No response"}
    ]}
  ]
}
